In patent publication US20200123175A1, “NOVEL ISOTHIAZOLO-BASED BICYCLES, PROCESSES FOR THEIR PREPARATION AND THEIR USE AS HERBICIDES AND/OR PLANT GROWTH REGULATORS” (Bayer CropScience Aktiengesellschaft, priority 2017, published 2020):

Tests used:
[1] = tested on: AMARE; assay: Herbicidal action pre-emergence (PE); format: in vivo, Amaranthus retroflexus; conditions: dosage 320 g/ha
[2] = tested on: VIOTR; assay: Herbicidal action pre-emergence (PE); format: in vivo, Viola tricolor; conditions: dosage 320 g/ha
[3] = tested on: ALOMY; assay: Herbicidal action pre-emergence (PE); format: in vivo, Alopecurus myosuroides; conditions: dosage 320 g/ha
[4] = tested on: AMARE; assay: Herbicidal action post-emergence (PO); format: in vivo, Amaranthus retroflexus; conditions: dosage 320 g/ha
[5] = tested on: VIOTR; assay: Herbicidal action post-emergence (PO); format: in vivo, Viola tricolor; conditions: dosage 320 g/ha
[6] = tested on: ABUTH; assay: Herbicidal action post-emergence (PO); format: in vivo, Abutilon theophrasti; conditions: dosage 320 g/ha
[7] = tested on: SETVI; assay: Herbicidal action post-emergence (PO); format: in vivo, Setaria viridis; conditions: dosage 320 g/ha
[8] = tested on: PHBPU; assay: Herbicidal action post-emergence (PO); format: in vivo, Pharbitis purpurea; conditions: dosage 320 g/ha
[9] = tested on: Puccinia recondita; assay: In vivo preventive test on Puccinia recondita (brown rust on wheat); conditions: 100 ppm of active ingredient; wheat plants; evaluated 11 days after the inoculation
Description: (§1) 4) Example: In Vivo Preventive Test on Puccinia recondita (Brown Rust on Wheat) [table] The active ingredients were made soluble and homogenized in a mixture of Dimethyl sulfoxide/Acetone//Tween® 80 and then diluted in water to the desired concentration. The young plants of wheat were treated by spraying the active ingredient prepared as described above. Control plants were treated only with an aqueous solution of Acetone/Dimethyl sulfoxide/Tween® 80. After 24 hours, the plants were contaminated by spraying the leaves with an aqueous suspension of Puccinia recondita spores.

[10] = tested on: ECHCG; assay: Herbicidal action pre-emergence (PE); format: in vivo, Echinochloa crus-galli; conditions: dosage 320 g/ha
[11] = tested on: SETVI; assay: Herbicidal action pre-emergence (PE); format: in vivo, Setaria viridis; conditions: dosage 320 g/ha
[12] = tested on: MATIN; assay: Herbicidal action pre-emergence (PE); format: in vivo, Matricaria inodora; conditions: dosage 320 g/ha
[13] = tested on: POLCO; assay: Herbicidal action pre-emergence (PE); format: in vivo, Polygonum convolvulus; conditions: dosage 320 g/ha
[14] = tested on: Pyrenophora teres; assay: In vivo preventive test on Pyrenophora teres (net blotch on barley); conditions: 100 ppm of active ingredient; barley plants; evaluated 14 days after the inoculation
Description: as §1, with “5)” for “4)”, “Pyrenophora teres (Net Blotch” for “Puccinia recondita (Brown Rust”, “Barley)” for “Wheat)”, “barley” for “wheat”, “Pyrenophora teres” for “Puccinia recondita”

Structure (SMILES) | AMARE [1] | VIOTR [2] | ALOMY [3] | AMARE [4] | VIOTR [5] | ABUTH [6] | SETVI [7] | PHBPU [8] | efficacy [9] | ECHCG [10] | SETVI [11] | MATIN [12] | POLCO [13] | efficacy [14]
O=C(Nc1nsc2c(=O)n(CC3CCCCC3)cnc12)c1cccnc1 [Example I-06] | 100 | 100 | 90 | 100 | 100 | 100 | – | – | – | – | – | – | – | –
O=C(Nc1nsc2c(=O)n(CC3CCCCC3)cnc12)C1CC1 [Example I-07] | 100 | 100 | 100 | 100 | 100 | 80 | 100 | 100 | at least 70% | – | – | – | – | –
O=C(Nc1nsc2c(=O)n(CC3CCCCC3)cnc12)c1ccc(Cl)cc1 [Example I-18] | 100 | 100 | 80 | – | – | – | – | – | – | – | – | – | – | –
O=C(Nc1nsc2c(=O)n(CC3CCCCC3)cnc12)c1cc(Cl)cc(Cl)c1 [Example I-20] | 100 | 100 | 80 | – | – | – | – | – | – | – | – | – | – | –
O=C(Nc1nsc2c(=O)n(CC3CCCCC3)cnc12)C(F)F [Example I-44] | 100 | 100 | – | 100 | 100 | 100 | – | – | – | 100 | 100 | 100 | 100 | at least 70%
COC(=O)C(=O)Nc1nsc2c(=O)n(CC3CCCCC3)cnc12 [Example I-70] | 100 | 100 | 100 | 100 | 100 | 80 | 100 | 100 | – | – | – | – | – | –
O=C(Nc1nsc2c(=O)n(Cc3ccc(F)cc3F)cnc12)C(F)(F)C(F)(F)F [Example I-78] | 100 | 100 | – | 100 | 100 | 80 | 100 | 100 | – | 100 | 100 | 100 | 100 | –
CC(=O)Nc1nsc2c(=O)n(Cc3ccc(F)cc3F)cnc12 [Example I-79] | 100 | 100 | 100 | 100 | 100 | 90 | – | – | – | – | – | – | – | –
CCC(=O)Nc1nsc2c(=O)n(Cc3ccc(F)cc3F)cnc12 [Example I-84] | 100 | 100 | – | 100 | 100 | 100 | 100 | 100 | – | 100 | 100 | 100 | 100 | –
O=C(Nc1nsc2c(=O)n(Cc3ccc(F)cc3F)cnc12)C(F)(F)F [Example I-85] | 100 | 100 | – | 100 | 100 | 80 | 100 | 100 | – | 100 | 100 | 100 | 100 | –
